The record followed here is PMC11359702, “Synthesis and Biochemical Evaluation of Ethanoanthracenes and Related Compounds: Antiproliferative and Pro-Apoptotic Effects in Chronic Lymphocytic Leukemia (CLL)” (Pharmaceuticals, 2024).

The melting point is the temperature, or range, at which the solid turns liquid. The term viability denotes a per cent measure of how many cells are alive, often set against a control. As a reminder, the GI50 is the concentration giving 50% growth inhibition. As usually defined, the CC50 is the concentration that lowers cell viability or growth by half. Higher therefore signals lower toxicity to the cells. As a reminder, the IC50 is the point on the concentration scale where inhibition reaches its midpoint. A word on the cell viability: it is a read-out of living cells in per cent, often relative to untreated cells. High values mean better survival, low ones a greater loss of cells.

The test system of series [1] is PGA-1 cells. The series is described as follows: alamarBlue cell viability assay. The settings on record: for viability at 10 µM: Homo sapiens, 24 h, read-out: cell viability; for IC50: read-out: PGA-1 IC50, PGA-1, 24 h.
The subject of series [2] is HG-3 cells. The series can be described thus: alamarBlue cell viability assay. The settings on record: for viability at 1 µM / viability at 10 µM: Homo sapiens; for viability at 1 µM / viability at 10 µM / IC50: HG-3, 24 h; for viability at 1 µM: read-out: cell viability, HG-3, 1 µM, 24 h, vehicle = 100%; for viability at 10 µM: read-out: cell viability, HG-3, 10 µM, 24 h, vehicle = 100%; for IC50: read-out: HG-3 IC50. A general note: The colour change of resazurin is a common sign of viable cells or microbes.

A further series has as its system SR. The series can be described thus: NCI-60 five-dose assay. It counts as cell-based, human.
A further series relates to RPMI-8226. The series can be described thus: NCI-60 five-dose assay. The format is cell-based, human. Conditions: RPMI-8226.
The next series concerns CCRF-CEM. The series is described as follows: NCI-60 five-dose assay. It counts as cell-based, human.
Series [3] relates to NCI 60 cancer cell line panel. The series can be described thus: NCI-60 five-dose assay, full-panel means. The settings on record: for Mean TGI (MID TGI, total growth inhibition) / GI50: mean over NCI 60 cell line panel; for GI50: read-out: Mean GI50 (MID GI50, full-panel mean-graph mid-point). It counts as cell-based. The method, then:
A number of our most promising compounds identified through preliminary cell viability testing (23c, 23d, 23f, 23h, 23l, 23m, 23n, 23o, 24f, 24l, 25n and 26n) were selected for NCI drug screening in the 60-cell-line panel. The panel includes nine subcategories based on cancer tissue types, which include leukemia, ovarian, central nervous system, breast, lung, prostate, skin, renal and colon cancer. The compounds were initially assessed in a one-dose assay at a fixed treatment concentration of 10 µM. The compounds selected for further investigation were progressed to a five-dose assay across the concentration ranges of 0.01, 0.1, 1, 10 and 100 µM [72]. The endpoints assessed in the screening protocol were GI50, TGI and LC50 [72].

The subject of the next series is MOLT-4. The series can be described thus: NCI-60 five-dose assay. The format is cell-based, human. The settings on record: MOLT-4.
The subject of a further series is HL-60(TB). The series can be described thus: NCI-60 five-dose assay. It counts as cell-based, human. The settings on record: HL-60(TB).
In series [4] the test system is HG-3 and PGA-1 cell lines. The series is described as follows: alamarBlue cell viability assay, mean of both CLL cell lines. It counts as cell-based, human. The settings on record: mean of HG-3 and PGA-1.
The next series deals with leukemia cell panel. The series can be described thus: NCI-60 five-dose assay, leukemia cell panel mean. It counts as cell-based, human. The settings on record: mean across the six leukemia cell lines.
The test system of series [5] is PGA-1 cells. The settings on record: 10 µM.
Another series has as its system K-562. The series is described as follows: NCI-60 five-dose assay. The settings on record: K-562. It counts as cell-based, human.
Series [6] deals with HG-3 cells. Conditions: 10 µM.
Series [7] is described as follows: HPLC stability study in phosphate buffers. The format is physicochemical. Conditions: 37 °C. As to the method:
A preliminary stability study was carried out on selected chalcones, maleic anhydride and maleimide adducts at acidic, neutral and basic conditions (pH 4, 7.4 and 9) using HPLC to determine suitability for further preclinical investigations. […] A possible degradation route for the maleimide 23n could be through the hydrolysis of the cyclic imide of the maleimide ring, leading to the resultant amic acid product.
All samples were analyzed using acetonitrile–water (80:20%, 70:30%, 60:40% isocratic) as the mobile phase over 10 min and a flow rate of 1 mL/min. Stock solutions were prepared by dissolving 5 mg of compounds in a mobile phase ([(acetonitrile (80%): water (20%)], 10 mL). Anhydride 22h was not detected at its retention time of 5.2 min at pH 9.0. The data presented represent the results of single experiments.
The HPLC stability studies for compounds 21a, 21i, 22h, 23a, 23g, 23n, 24a, 24h, 26a and 26n were performed using a Symmetry® column (C18, 5 µm, 4.6 × 150 mm), a Waters 2487 Dual Wavelength Absorbance detector, and an HPLC pump: Waters 1525 binary and Autosampler; Waters 717 plus (Waters Corporation, Milford, MA, USA), mobile phase [(acetonitrile (80%) and water (20%)] with a typical run time of 10 min and a flow rate of 1 mL/min with detection at 254 nm. The selected compounds 21a, 21i, 22h, 23a, 23g, 23n, 24a, 24h, 26a and 26n (5 mg) in the mobile phase (10 mL) provided the stock solution for the analysis. The phosphate buffers were prepared at pH values of 4, 7.4 and 9, as described in the British Pharmacopoeia monograph 2019. The stock solution (30 µL) was added to the appropriate buffer (1 mL) and retained at 37 °C. Samples were then analyzed over the following 24-h period at selected time intervals (t = 0 min, 5 min, 30 min, 60 min, 90 min, 120 min and 24 h).

Take `CCc1ccc(C(=O)/C=C/c2c3ccccc3cc3ccccc23)cc1` [Compound 21c, (E)-3-(anthracen-9-yl)-1-(4-ethylphenyl)prop-2-en-1-one]: the melting point was 128 to 129 °C.
On to `O=C(/C=C/c1c2ccccc2cc2ccccc12)c1ccccc1` [Compound 21f, (E)-3-(anthracen-9-yl)-1-phenylprop-2-en-1-one], for which the melting point was in the range of 128 to 130 °C.
Compound `O=C(/C=C/c1c2ccccc2cc2ccccc12)c1ccc(I)cc1` [Compound 21g, (E)-3-(anthracen-9-yl)-1-(4-iodophenyl)prop-2-en-1-one] had a melting point of 167 to 173 °C.
Still for that read-out and setting: with `Cc1ccc(C(=O)/C=C/c2c3ccccc3cc3ccccc23)cc1` [Compound 21j, (E)-3-(anthracen-9-yl)-1-(p-tolyl)prop-2-en-1-one] the figure was 98 to 103 °C.
As for `COc1cc(C(=O)/C=C/c2c3ccccc3cc3ccccc23)cc(OC)c1OC` [Compound 21k, (E)-3-(Anthracen-9-yl)-1-(3,4,5-trimethoxyphenyl)prop-2-en-1-one], the melting point is 160 to 164 °C. Also, in the series with PGA-1 cells [1], the viability at 10 µM came to 43%. In addition, in the series on HG-3 cells [2], the viability at 1 µM was in the range of 50 to 61% and the viability at 10 µM lay in the range of 37 to 54%.
For `O=C(/C=C/c1c2ccccc2cc2ccccc12)c1ccncc1` [Compound 21m, (E)-3-(anthracen-9-yl)-1-(pyridin-4-yl)prop-2-en-1-one] the same measures were 170 to 173 °C, 43%, 50 to 61% and 37 to 54%.
In turn, `O=C(/C=C/c1c2ccccc2cc2ccccc12)c1ccc2ccccc2c1` [Compound 21p, (E)-3-(anthracen-9-yl)-1-(naphthalen-2-yl)prop-2-en-1-one] had a melting point of 160 to 164 °C. Moreover, the viability at 10 µM in the series with PGA-1 cells [1] was found to be 50%.
In the case of `O=C(/C=C/c1c2ccccc2cc2ccccc12)c1cccs1` [Compound 21q, (E)-3-(anthracen-9-yl)-1-(thiophen-2-yl)prop-2-en-1-one], the melting point fell in the range of 157 to 158 °C.
Take `O=C(/C=C/C12c3ccccc3C(c3ccccc31)C1C(=O)N(c3ccccc3)C(=O)C12)c1ccccc1` (stereo not drawn) [Compound 24f, (E)-9-(3-Oxo-3-phenylprop-1-en-yl)-13-phenyl-9,10-dihydro-9,10-[3,4]epipyrroloanthracene-12,14-dione]: the GI50 is 2030 nM in the series with SR; 1550 nM in the series on RPMI-8226; 1450 nM in the series with CCRF-CEM; 2090 nM in series [3]; 1230 nM in the series on MOLT-4; 1020 nM in the series with HL-60(TB). Further, the concentration for 50% growth inhibition (GI50) with leukemia cell panel stood at 1450 nM; with K-562 it was 1390 nM. In [3], this compound gave a CC50 of 72400 nM. Moreover, the “Mean TGI (MID TGI, total growth inhibition)” value in series [3] is 19950 nM. For the same compound, the 50% inhibitory concentration (IC50) in the series with PGA-1 cells [1] was 7130 nM; in series [4] it was 7240 nM; in the series with HG-3 cells [2], 7350 nM. The same compound displayed a cell viability in the series with PGA-1 cells [5] of 26%.
As to `O=C(/C=C/C12c3ccccc3C(c3ccccc31)C1C(=O)N(c3ccccc3)C(=O)C12)c1ccc(Cl)cc1` (stereo not drawn) [Compound 24l, (E)-9-(3-(4-Chlorophenyl)-3-oxoprop-1-en-1-yl)-13-phenyl-9,10-dihydro-9,10-[3,4] epipyrroloanthracene-12,14-dione], the GI50 with SR is 1070 nM; in the series on RPMI-8226, 1160 nM; in the series on CCRF-CEM, 570 nM; in [3], 1700 nM; in the series on MOLT-4 it was 760 nM; with HL-60(TB), 800 nM. In addition, the GI50 in the series on leukemia cell panel came to 980 nM; in the series on K-562, 1550 nM. Also, the figures for the cell viability with HG-3 cells [6] and in the series on PGA-1 cells [5] were 24% and 17%, respectively. In [3], this compound showed a half-maximal cytotoxic concentration (CC50) of 43700 nM. In addition, the “Mean TGI (MID TGI, total growth inhibition)” value in series [3] is 10720 nM. The IC50 in the series on PGA-1 cells [1] was 310 nM; in [4], 1880 nM; in the series with HG-3 cells [2] it was 3450 nM.
For the compound `O=C(c1ccccc1)c1ccc(N2C(=O)C3C4c5ccccc5C(/C=C/C(=O)c5ccccn5)(c5ccccc54)C3C2=O)cc1` (stereo not drawn) [Compound 26n, (E)-13-(4-Benzoylphenyl)-9-(3-oxo-3-(pyridin-2-yl)prop-1-en-1-yl)-9,10-dihydro-9,10-[3,4]epipyrroloanthracene-12,14-dione], the GI50 with SR is 1370 nM; with RPMI-8226, 2490 nM; in the series on CCRF-CEM, 2590 nM; in [3] it was 7580 nM; in the series with MOLT-4, 2290 nM; with HL-60(TB), 1900 nM. The GI50 in the series on leukemia cell panel stood at 2070 nM; in the series on K-562, 1770 nM. Moreover, the cell viability in the series with HG-3 cells [6] worked out at 4%; in the series on PGA-1 cells [5] it was 18%. In series [3], this compound had a half-maximal cytotoxic concentration (CC50) of 100000 nM. In addition, the “Mean TGI (MID TGI, total growth inhibition)” value in series [3] is 100000 nM. Moreover, the “Half-life pH 4” value in [7] (pH 4 buffer) is 8.5 h. Also, the “% remaining 24 h pH 4” value in series [7] (pH 4 buffer, 24 h, HPLC) worked out at 10.97%. For the same compound, the “Half-life pH 7.4” value in series [7] (pH 7.4 buffer) was 16.5 h. For the same compound, in [7] (pH 7.4 buffer, 24 h, HPLC), the “% remaining 24 h pH 7.4” value was determined as 40.39%. In series [7] (pH 9 buffer), the “Half-life pH 9” value is reported as “over 24 h”. Besides, in series [7] (pH 9 buffer, 24 h, HPLC), the “% remaining 24 h pH 9” value is on record as 51.20%. Further, the “decrease in cell viability compared to 26f” value in the series on PGA-1 cells [1] (PGA-1, 1 µM) came out at 20%; in the series on PGA-1 cells [1] (PGA-1, 10 µM) it was 63%; in the series with HG-3 cells [2] (HG-3, 1 µM), 34%; with HG-3 cells [2] (HG-3, 10 µM), 82%. Also, the figures for the 50% inhibitory concentration (IC50) (in the series with PGA-1 cells [1]; in series [4]; in the series with HG-3 cells [2]) were 390 nM, 1120 nM and 1850 nM, respectively.
Compound `COC(=O)C1=C(C(=O)OC)C2(C=CC(=O)c3ccccc3)c3ccccc3C1c1ccccc12` [Compound 27, Dimethyl (E)-9-(3-oxo-3-phenylprop-1-en-1-yl)-9,10-dihydro-9,10-ethenoanthracene-11,12-dicarboxylate] showed a melting point of more than 250 °C. Also, in the series on PGA-1 cells [1], the viability at 10 µM is 58%. In the series with HG-3 cells [2], the viability at 10 µM came out at 50%.
